Laboratory results taken from US6660300B1, “Method of use of a biphasic controlled release delivery system for high solubility pharmaceuticals and method” (Bristol-Myers Squibb Co., priority 1998, dated 2003).
Structures can show the parent of a compound that is named as a salt.

Experiments:
[1] = cited from earlier work
[2] = compaction susceptibility
[3] = hygroscopicity at 95% relative humidity/25° C.

| compaction susceptibility [2] | hygroscopicity, moisture uptake ([3]; at 30 minutes) | hygroscopicity, moisture uptake ([3]; at 6 hours) | Structure (SMILES) | area under the plasma concentration-time profile, jejunum compared with ileum ([1]; drug perfused into jejunum versus ileum) | drug in plasma ([1]; drug perfused into the colon) |
| --- | --- | --- | --- | --- | --- |
| – | – | – | CN(C)C(=N)N=C(N)N [metformin] | 2.5 fold | not detectable |
| low | less than 1% | – | CN(C)C(=N)NC(=N)N [metformin (2:1) succinate, Metformin (2:1) Succinate] | – | – |
| low | – | less than 7% | CN(C)C(=N)N=C(N)N [metformin (2:1) fumarate, Metformin (2:1) Fumarate] | – | – |
